# Measurements published in patent publication US6949548B2, “Combination therapy for the treatment of heart failure” (Orion Corporation, priority 2001, dated 2005).
# Tested on: heart failure patients
# Assay: Effect of the combination on the mortality of heart failure patients
# Assay type: in vivo, human
# Experimental: Effect of the Combination on the Mortality of Heart Failure Patients
# A 6-hour infusion of levosimendan using a bolus of 6, 12 or 24 μg/kg and subsequent infusion of 0.1, 0.2 or 0.4 μg/kg/min was given to heart failure patients with or without concomitant use of a beta-blocker. The 72-hour, 14-day and 180 day mortality was measured. It can be seen that the combination provided synergistic reduction in the mortality of the heart failure patients.
# [1] = LS 6 + 0.1 (bolus 6 μg/kg, infusion 0.1 μg/kg/min, 6-hour), did not receive beta-blocker, N = 60
# [2] = LS 6 + 0.1 (bolus 6 μg/kg, infusion 0.1 μg/kg/min, 6-hour), received beta-blocker, N = 43
# [3] = LS 12 + 0.2 (bolus 12 μg/kg, infusion 0.2 μg/kg/min, 6-hour), did not receive beta-blocker, N = 62
# [4] = LS 12 + 0.2 (bolus 12 μg/kg, infusion 0.2 μg/kg/min, 6-hour), received beta-blocker, N = 38
# [5] = LS 24 + 0.2 (bolus 24 μg/kg, infusion 0.2 μg/kg/min, 6-hour), did not receive beta-blocker, N = 67
# [6] = LS 24 + 0.2 (bolus 24 μg/kg, infusion 0.2 μg/kg/min, 6-hour), received beta-blocker, N = 32
# [7] = LS 24 + 0.4 (bolus 24 μg/kg, infusion 0.4 μg/kg/min, 6-hour), did not receive beta-blocker, N = 57
# [8] = LS 24 + 0.4 (bolus 24 μg/kg, infusion 0.4 μg/kg/min, 6-hour), received beta-blocker, N = 42
smiles,measurement,setting,value
"CC1CC(=O)NN=C1c1ccc(NN=C(C#N)C#N)cc1 (single isomer, unassigned; (-)) [LS, (−)-enantiomer of [[4-(1,4,5,6-tetrahydro-4-methyl-6-oxo-3-pyridazinyl)phenyl]hydrazono]propanedinitrile]","14-day mortality, %",[1],15.0%
same,"72-hour mortality, %",[1],8.3%
same,"180-day mortality, %",[1],50.0%
same,"14-day mortality, %",[2],9.3%
same,"72-hour mortality, %",[2],2.3%
same,"180-day mortality, %",[2],30.2%
same,"14-day mortality, %",[3],8.1%
same,"72-hour mortality, %",[3],1.6%
same,"180-day mortality, %",[3],40.3%
same,"14-day mortality, %",[4],10.5%
same,"72-hour mortality, %",[4],5.3%
same,"180-day mortality, %",[4],26.3%
same,"14-day mortality, %",[5],14.9%
same,"72-hour mortality, %",[5],7.5%
same,"180-day mortality, %",[5],46.3%
same,"14-day mortality, %",[6],9.4%
same,"72-hour mortality, %",[6],0.0%
same,"180-day mortality, %",[6],37.5%
same,"14-day mortality, %",[7],15.8%
same,"72-hour mortality, %",[7],8.8%
same,"180-day mortality, %",[7],45.6%
same,"14-day mortality, %",[8],4.8%
same,"72-hour mortality, %",[8],0.0%
same,"180-day mortality, %",[8],23.8%
